Test results reported in the NIST ThermoML archive (doi:10.1021/je900124n).
“And” between values parts separate entries of the source, which are not always exact repeats. Identical values can stand only once. Numbers after ± are expanded uncertainties.

Conditions: Fluid (supercritical or subcritical phases), Buoyancy - hydrostatic balance with magnetic suspension - two sinkers

CCC [propane]
mass density (340 K, 34960 kPa): 514.104 ± 0.062 kg/m3 | mass density (340 K, 34961 kPa): 514.106 ± 0.062 kg/m3 | mass density (340 K, 34962 kPa): 514.105 ± 0.062 kg/m3 | mass density (345 K, 2494.9 kPa): 58.0748 ± 0.036 kg/m3 and 58.0791 ± 0.036 kg/m3 and 58.0771 ± 0.036 kg/m3 | mass density (345 K, 2495 kPa): 58.0845 ± 0.036 kg/m3 and 58.0787 ± 0.036 kg/m3 | mass density (350 K, 1942.1 kPa): 37.8566 ± 0.044 kg/m3 and 37.8552 ± 0.044 kg/m3 | mass density (350 K, 1942.5 kPa): 37.8654 ± 0.044 kg/m3 and 37.8643 ± 0.044 kg/m3 | mass density (350 K, 1942.6 kPa): 37.8656 ± 0.044 kg/m3 | mass density (350 K, 2573.5 kPa): 58.0372 ± 0.049 kg/m3 and 58.0366 ± 0.049 kg/m3 | mass density (350 K, 2573.6 kPa): 58.041 ± 0.049 kg/m3 and 58.0413 ± 0.049 kg/m3 and 58.0386 ± 0.049 kg/m3 | mass density (350 K, 2844.7 kPa): 70.6094 ± 0.53 kg/m3 | mass density (350 K, 2844.9 kPa): 70.6242 ± 0.53 kg/m3 | mass density (350 K, 2845 kPa): 70.6246 ± 0.53 kg/m3 | mass density (350 K, 2845.1 kPa): 70.6278 ± 0.53 kg/m3 and 70.6365 ± 0.53 kg/m3 | mass density (350 K, 2845.2 kPa): 70.6334 ± 0.53 kg/m3 | mass density (350 K, 2845.3 kPa): 70.6504 ± 0.53 kg/m3 and 70.6463 ± 0.53 kg/m3 | mass density (350 K, 3505.9 kPa): 392.661 ± 0.54 kg/m3 | mass density (350 K, 3506 kPa): 392.666 ± 0.54 kg/m3 | mass density (350 K, 3506.2 kPa): 392.664 ± 0.54 kg/m3 | mass density (350 K, 3506.3 kPa): 392.667 ± 0.54 kg/m3 | mass density (350 K, 3506.4 kPa): 392.663 ± 0.54 kg/m3 and 392.666 ± 0.54 kg/m3 | mass density (350 K, 3506.5 kPa): 392.666 ± 0.54 kg/m3 | mass density (350 K, 12070 kPa): 449.428 ± 0.055 kg/m3 [middle of 6 runs] | mass density (350 K, 12071 kPa): 449.434 ± 0.055 kg/m3 and 449.429 ± 0.055 kg/m3 | mass density (350 K, 24455 kPa): 484.992 ± 0.059 kg/m3 and 484.989 ± 0.059 kg/m3 | mass density (350 K, 24456 kPa): 484.992 ± 0.059 kg/m3 | mass density (355 K, 2650.7 kPa): 57.9954 ± 0.061 kg/m3 [middle of 4 runs] | mass density (355 K, 3003.3 kPa): 73.4591 ± 0.061 kg/m3 [middle of 6 runs] | mass density (355.01 K, 3003.3 kPa): 73.4598 ± 0.061 kg/m3 | mass density (359 K, 3436 kPa): 96.2198 ± 0.073 kg/m3 | mass density (359 K, 3436.4 kPa): 96.2687 ± 0.073 kg/m3 and 96.2618 ± 0.073 kg/m3 and 96.2668 ± 0.073 kg/m3 | mass density (359 K, 3436.5 kPa): 96.2652 ± 0.073 kg/m3 | mass density (359.99 K, 15760 kPa): 448.817 ± 0.055 kg/m3 | mass density (359.99 K, 15761 kPa): 448.823 ± 0.055 kg/m3 | mass density (360 K, 303.73 kPa): 4.597 ± 0.0029 kg/m3 and 4.5969 ± 0.0029 kg/m3 | mass density (360 K, 303.74 kPa): 4.597 ± 0.0029 kg/m3 and 4.5971 ± 0.0029 kg/m3 | mass density (360 K, 539.35 kPa): 8.3504 ± 0.0033 kg/m3 | mass density (360 K, 539.36 kPa): 8.3506 ± 0.0033 kg/m3 and 8.3504 ± 0.0033 kg/m3 and 8.3503 ± 0.0033 kg/m3 | mass density (360 K, 901.24 kPa): 14.4832 ± 0.0041 kg/m3 and 14.4833 ± 0.0041 kg/m3 | mass density (360 K, 901.25 kPa): 14.4835 ± 0.0041 kg/m3 and 14.4836 ± 0.0041 kg/m3 | mass density (360 K, 1361.2 kPa): 23.0769 ± 0.029 kg/m3 and 23.078 ± 0.029 kg/m3 | mass density (360 K, 1361.3 kPa): 23.0792 ± 0.029 kg/m3 | mass density (360 K, 1361.4 kPa): 23.0819 ± 0.029 kg/m3 and 23.0827 ± 0.029 kg/m3 | mass density (360 K, 2033.2 kPa): 37.8651 ± 0.036 kg/m3 | mass density (360 K, 2033.3 kPa): 37.8677 ± 0.036 kg/m3 | mass density (360 K, 2033.4 kPa): 37.8707 ± 0.036 kg/m3 | mass density (360 K, 2033.5 kPa): 37.8723 ± 0.036 kg/m3 and 37.8724 ± 0.036 kg/m3 | mass density (360 K, 2725.4 kPa): 57.912 ± 0.045 kg/m3 | mass density (360 K, 2725.5 kPa): 57.9157 ± 0.045 kg/m3 | mass density (360 K, 2725.6 kPa): 57.9165 ± 0.045 kg/m3 | mass density (360 K, 3108.3 kPa): 73.4362 ± 0.073 kg/m3 [middle of 6 runs] | mass density (360 K, 3108.4 kPa): 73.4363 ± 0.073 kg/m3 | mass density (360 K, 3467.9 kPa): 96.3808 ± 0.61 kg/m3 and 96.381 ± 0.61 kg/m3 | mass density (360 K, 3468 kPa): 96.3801 ± 0.61 kg/m3 and 96.3793 ± 0.61 kg/m3 and 96.3804 ± 0.61 kg/m3 | mass density (360 K, 3730.9 kPa): 352.636 ± 0.21 kg/m3 and 352.637 ± 0.21 kg/m3 | mass density (360 K, 3731 kPa): 352.635 ± 0.21 kg/m3 | mass density (360 K, 3731.1 kPa): 352.636 ± 0.21 kg/m3 | mass density (360 K, 5948.1 kPa): 392.145 ± 0.051 kg/m3 | mass density (360 K, 5948.8 kPa): 392.137 ± 0.051 kg/m3 | mass density (360 K, 5949.1 kPa): 392.137 ± 0.051 kg/m3 | mass density (360 K, 5949.4 kPa): 392.137 ± 0.051 kg/m3 and 392.14 ± 0.051 kg/m3 and 392.139 ± 0.051 kg/m3 | mass density (360 K, 5949.5 kPa): 392.138 ± 0.051 kg/m3 | mass density (360 K, 5949.7 kPa): 392.139 ± 0.051 kg/m3 | mass density (360 K, 7930.9 kPa): 409.823 ± 0.051 kg/m3 | mass density (360 K, 7931 kPa): 409.821 ± 0.051 kg/m3 | mass density (360 K, 7931.2 kPa): 409.824 ± 0.051 kg/m3 | mass density (360 K, 7931.3 kPa): 409.824 ± 0.051 kg/m3 | mass density (360 K, 11923 kPa): 433.101 ± 0.053 kg/m3 [middle of 5 runs] | mass density (360 K, 15761 kPa): 448.822 ± 0.055 kg/m3 and 448.82 ± 0.055 kg/m3 and 448.823 ± 0.055 kg/m3 | mass density (360 K, 15762 kPa): 448.821 ± 0.055 kg/m3 and 448.822 ± 0.055 kg/m3 | mass density (360 K, 16074 kPa): 449.912 ± 0.055 kg/m3 | mass density (360 K, 16075 kPa): 449.912 ± 0.055 kg/m3 and 449.911 ± 0.055 kg/m3 | mass density (360 K, 19910 kPa): 462.101 ± 0.056 kg/m3 and 462.102 ± 0.056 kg/m3 | mass density (360 K, 23890 kPa): 472.673 ± 0.057 kg/m3 and 472.674 ± 0.057 kg/m3 and 472.672 ± 0.057 kg/m3 | mass density (360 K, 23891 kPa): 472.674 ± 0.057 kg/m3 | mass density (360 K, 30126 kPa): 486.462 ± 0.059 kg/m3 | mass density (360 K, 30127 kPa): 486.462 ± 0.059 kg/m3 | mass density (360 K, 35259 kPa): 496.072 ± 0.06 kg/m3 | mass density (360 K, 35260 kPa): 496.073 ± 0.06 kg/m3 and 496.072 ± 0.06 kg/m3 | mass density (360 K, 35262 kPa): 496.074 ± 0.06 kg/m3 | mass density (360.01 K, 901.24 kPa): 14.4833 ± 0.0041 kg/m3 | mass density (360.01 K, 3108.3 kPa): 73.4355 ± 0.073 kg/m3 | mass density (365 K, 3675.6 kPa): 100.804 ± 0.63 kg/m3 and 100.799 ± 0.63 kg/m3 and 100.803 ± 0.63 kg/m3 | mass density (365 K, 3675.7 kPa): 100.805 ± 0.63 kg/m3 | mass density (365 K, 4200.9 kPa): 337.532 ± 0.5 kg/m3 and 337.539 ± 0.5 kg/m3 and 337.537 ± 0.5 kg/m3 | mass density (365 K, 4201.1 kPa): 337.536 ± 0.5 kg/m3 | mass density (365 K, 4201.2 kPa): 337.534 ± 0.5 kg/m3 | mass density (365 K, 4201.3 kPa): 337.537 ± 0.5 kg/m3 and 337.54 ± 0.5 kg/m3 | mass density (365 K, 4201.5 kPa): 337.541 ± 0.5 kg/m3 | mass density (369 K, 4143.7 kPa): 146.446 ± 2 kg/m3 [middle of 6 runs] | mass density (369 K, 4143.8 kPa): 146.438 ± 2 kg/m3 and 146.437 ± 2 kg/m3 | mass density (369 K, 4197.8 kPa): 281.2 ± 2.8 kg/m3 and 281.206 ± 2.8 kg/m3 | mass density (369 K, 4197.9 kPa): 281.145 ± 2.8 kg/m3 | mass density (369 K, 4198 kPa): 281.222 ± 2.8 kg/m3 [middle of 4 runs] | mass density (369 K, 4198.1 kPa): 281.241 ± 2.8 kg/m3 | mass density (369.82 K, 4245.5 kPa): 199.588 ± 0.91 kg/m3 and 199.89 ± 0.91 kg/m3 and 199.647 ± 0.91 kg/m3 | mass density (369.82 K, 4245.6 kPa): 199.834 ± 0.91 kg/m3 | mass density (369.82 K, 4246.6 kPa): 245.595 ± 0.86 kg/m3 | mass density (369.82 K, 4985.6 kPa): 337.371 ± 0.069 kg/m3 | mass density (369.82 K, 19374 kPa): 448.259 ± 0.055 kg/m3 | mass density (369.82 K, 19375 kPa): 448.259 ± 0.055 kg/m3 [middle of 7 runs] | mass density (369.83 K, 3309.2 kPa): 73.3627 ± 0.064 kg/m3 | mass density (369.83 K, 3309.3 kPa): 73.3633 ± 0.064 kg/m3 and 73.3643 ± 0.064 kg/m3 and 73.3637 ± 0.064 kg/m3 | mass density (369.83 K, 3309.4 kPa): 73.3693 ± 0.064 kg/m3 [middle of 4 runs] | mass density (369.83 K, 4186.1 kPa): 146.569 ± 0.39 kg/m3 | mass density (369.83 K, 4186.2 kPa): 146.57 ± 0.39 kg/m3 [middle of 6 runs] | mass density (369.83 K, 4186.3 kPa): 146.572 ± 0.39 kg/m3 | mass density (369.83 K, 4245.5 kPa): 199.889 ± 0.91 kg/m3 | mass density (369.83 K, 4245.6 kPa): 200.17 ± 0.91 kg/m3 and 199.849 ± 0.91 kg/m3 and 199.989 ± 0.91 kg/m3 | mass density (369.83 K, 4246.6 kPa): 245.029 ± 0.86 kg/m3 and 245.142 ± 0.86 kg/m3 | mass density (369.83 K, 4246.7 kPa): 245.511 ± 0.86 kg/m3 and 245.436 ± 0.86 kg/m3 | mass density (369.83 K, 4246.8 kPa): 245.25 ± 0.86 kg/m3 and 245.225 ± 0.86 kg/m3 | mass density (369.83 K, 4246.9 kPa): 245.368 ± 0.86 kg/m3 | mass density (369.83 K, 4284.4 kPa): 281.216 ± 0.94 kg/m3 | mass density (369.83 K, 4284.5 kPa): 281.229 ± 0.94 kg/m3 and 281.217 ± 0.94 kg/m3
